Counter-ions that a name gives are not always drawn. Like-named read-outs stand apart in the source and are kept apart here.
Assays:
[1] = biological target: P99 β-lactamase (class C) (Enterobacter cloacae, UniProt P05364); experiment: biochemical
Procedure: Enzyme activity against the commercially available substrate, nitrocefin, was measured in the presence of various inhibitor concentrations. The P99 β-lactamase enzyme (1 mg/mL) was dissolved in 20 mM MOPS buffer at pH 7.50, and diluted 200-fold in the same buffer containing 0.1% BSA. Nitrocefin was stored as a 100 μM stock solution in 20 mM MOPS at pH 7.5. Stock solutions of test compounds were prepared in 10 mM MOPS at pH 7.5 (approximately 1 mg/mL)
The reaction at 25° C. was followed spectrophotometrically at 482 nm. IC50 values were determined from the dose-response plots of the initial rates vs. inhibitor concentration

[2] = system: Enterobacter cloacae [ATCC #23355]; assay type: cell-based; conditions: ratio antibiotic MIC without/with inhibitor
Description: An increasing number of organisms produce enzymes that inhibit the actions of β-lactam antibiotics, so-called β-lactamases. […] The Minimum Inhibitory Concentration (MIC) test determines the lowest concentration of an antibiotic at which no visible bacterial growth occurs. This test permits comparisons to be made between bacterial growth in the presence of antibiotic alone (control) and bacterial growth in the presence of both an antibiotic and a novel (test) compound.
(§1) Frozen bacterial stocks were thawed to room temperature, and a few drops were placed on an appropriate plate; chocolate agar was used for H. influenzae, blood agar was used for all others. The plates were incubated overnight at 37° C. in air, except for H. influenzae, which was incubated in a CO2 incubator. The cultures were subcultured the following day, and the subcultures were again incubated overnight
A sterile loop was touched to 3 colonies and used to inoculate 1 mL of Mueller-Hinton Broth (MHB). […] 5 μL of the resultant inoculum solution contained ˜4×10^4 CFU/mL. Confirmation of the inoculum was performed by preparing a serial dilution to give 100 μL of a 5000-fold dilution, all of which was then plated onto an appropriate plate.
(§2) Each plate included 2 wells with no bacterial inoculum (negative control) and 2 wells with no test compound and no antibiotic (positive control). The plate was covered and incubated with gentle shaking for 16-20 hours at 37° C. in air (CO2 for H. influenzae). Absorbance was read at 540 nm (Multiskan Titertek mcc/340). Bacterial growth was scored as follows:
(§3) In some cases, the determination of MIC in the presence of test compound was performed at more than one concentration of the test compound.
The impact of the novel β-lactamase inhibitors is expressed as the ratio of the MIC determined in the absence of β-lactamase inhibitor to the MIC determined in the presence of the specified concentration of the β-lactamase inhibitor test compound.

[3] = system: Staphylococcus aureus [MGH:MA #50848]; experiment: Antibiotic MIC in presence and absence of β-lactamase inhibitor (synergy); assay type: cell-based; conditions: ratio antibiotic MIC without/with inhibitor; inhibitor 10 μg/mL
Description: (§4) An increasing number of organisms produce enzymes that inhibit the actions of β-lactam antibiotics, so-called β-lactamases. The “strength” of β-lactam antibiotics can be improved by pairing them with compounds that inhibit bacterial enzyme β-lactamases. The Minimum Inhibitory Concentration (MIC) test determines the lowest concentration of an antibiotic at which no visible bacterial growth occurs. This test permits comparisons to be made between bacterial growth in the presence of antibiotic alone (control) and bacterial growth in the presence of both an antibiotic and a novel (test) compound.
(§5) • β-lactamase positive strains • β-lactam antibiotics • β-lactamase inhibitor compounds • appropriate bacterial growth medium β-Lactamase Positive Strains • Klebsiella oxytoca [ATCC#51983] • Staphylococcus aureus [MGH: MA#50848] • Enterococcus faecalis [ATCC#49757] • Enterobacter cloacae [ATCC#23355] • Haemophilus influenzae [ATCC#43163] β-Lactam antibiotics
as §1
(§6) A sterile loop was touched to 3 colonies and used to inoculate 1 mL of Mueller-Hinton Broth (MHB). The bacterial solution was diluted 18.8-fold (20 μL of bacterial solution in […] of broth). 5 μL of the resultant inoculum solution contained ˜4×10^4 CFU/mL. Confirmation of the inoculum was performed by preparing a serial dilution to give 100 μL of a 5000-fold dilution, all of which was then plated onto an appropriate plate. After incubation overnight at 37° C., the plate had 75-150 colonies.
as §2, with “In each well of a 96-well microtiter plate was combined 5 μL of bacterial inoculum, 90 μL of antibiotic dilutions, and 5 μL of test compound (or media for determination of the MIC of the antibiotic in the absence of test compound). Each” for “Each”
as §3
(§7) The impact of the novel β-lactamase inhibitors is expressed as the ratio of the MIC determined in the absence of β-lactamase inhibitor to the MIC determined in the presence of the specified concentration of the β-lactamase inhibitor test compound. […]

[4] = system: Haemophilus influenzae [ATCC #43163]; experiment: as above; assay type: cell-based; conditions: ratio antibiotic MIC without/with inhibitor; inhibitor 10 μg/mL
Description: as §4, §5, §1, §6
as §2, with “In each well of a 96-well microtiter plate was combined 5 μL of bacterial inoculum, 90 μL of antibiotic dilutions, and 5 μL of test compound (or media for determination of the MIC of the antibiotic in the absence of test compound). Each” for “Each”
as §3, §7

[5] = physchem
[6] = system: Stenotrophomonas maltophilia [ATCC#98043029-intermediate resistance]; experiment: Synergy against highly resistant β-lactamase positive strains; assay type: cell-based
Procedure: as §1, §6
as §2, with “In each well of a 96-well microtiter plate was combined 5 μL of bacterial inoculum, 90 μL of antibiotic dilutions, and 5 μL of test compound (or media for determination of the MIC of the antibiotic in the absence of test compound). Each” for “Each”
as §3, §7
(§8) Following procedures identical to those described in Example 72, β-lactamase inhibitors were tested for their ability to enhance antibiotic efficacy against β-lactamase positive bacterial strains that are very highly resistant to β-lactam antibiotics.
(§9) • Enterobacter cloacae (derepressed) • Pseudomonas aeroginosa [ATCC#12470-resistant] • Stenotrophomonas maltophilia [ATCC#12968-resistant] • Pseudomonas aeroginosa [ATCC#98043010-intermediate resistance] • Stenotrophomonas maltopilia [ATCC#98043029-intermediate resistance]

[7] = system: Enterobacter cloacae (derepressed); experiment: as above; assay type: cell-based; conditions: derepressed strain
Procedure: as §1, §6
as §2, with “In each well of a 96-well microtiter plate was combined 5 μL of bacterial inoculum, 90 μL of antibiotic dilutions, and 5 μL of test compound (or media for determination of the MIC of the antibiotic in the absence of test compound). Each” for “Each”
as §3, §7, §8, §9

[8] = system: Stenotrophomonas maltophilia [ATCC#12968-resistant]; experiment: as above; assay type: cell-based
Procedure: as §1, §6
as §2, with “In each well of a 96-well microtiter plate was combined 5 μL of bacterial inoculum, 90 μL of antibiotic dilutions, and 5 μL of test compound (or media for determination of the MIC of the antibiotic in the absence of test compound). Each” for “Each”
as §3, §7, §8, §9

[9] = system: Pseudomonas aeroginosa [ATCC#98043010-intermediate resistance]; experiment: as above; assay type: cell-based
Procedure: as §1, §6
as §2, with “In each well of a 96-well microtiter plate was combined 5 μL of bacterial inoculum, 90 μL of antibiotic dilutions, and 5 μL of test compound (or media for determination of the MIC of the antibiotic in the absence of test compound). Each” for “Each”
as §3, §7, §8, §9

[10] = system: Pseudomonas aeroginosa [ATCC#12470-resistant]; experiment: as above; assay type: cell-based
Procedure: as §1, §6
as §2, with “In each well of a 96-well microtiter plate was combined 5 μL of bacterial inoculum, 90 μL of antibiotic dilutions, and 5 μL of test compound (or media for determination of the MIC of the antibiotic in the absence of test compound). Each” for “Each”
as §3, §7, §8, §9

[11] = Table 1
[12] = Class C β-lactamase [P99], Table 1, read-out: IC50 (μM) “C”

P99 β-lactamase (class C), sequence (P05364 21-381): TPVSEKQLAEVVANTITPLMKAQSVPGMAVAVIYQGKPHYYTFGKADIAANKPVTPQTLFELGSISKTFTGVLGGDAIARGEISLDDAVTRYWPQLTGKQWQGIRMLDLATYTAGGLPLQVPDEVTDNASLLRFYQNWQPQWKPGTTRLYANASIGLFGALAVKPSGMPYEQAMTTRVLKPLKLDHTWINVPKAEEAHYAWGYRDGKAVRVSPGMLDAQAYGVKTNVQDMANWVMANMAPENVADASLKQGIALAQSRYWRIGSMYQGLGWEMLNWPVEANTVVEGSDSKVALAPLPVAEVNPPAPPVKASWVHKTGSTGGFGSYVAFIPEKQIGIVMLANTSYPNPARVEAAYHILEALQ

Row | Molecule | IC50 [1] [µM] | Synergy Class C E. Cl ([2]; inhibitor 10 μg/mL) | Synergy Class A H. In. [4] | also measured
1 | O=[N+]([O-])c1ccc(OP(=O)(O)CNS(=O)(=O)c2cccs2)cc1 [compound 15] | 18 | – | – | –
2 | O=P(O)(CNS(=O)(=O)c1ccsc1)Oc1cccnc1 [compound 55] | 3600 | – | – | –
3 | O=[N+]([O-])c1ccc(OP(=O)(O)NNS(=O)(=O)c2ccccc2)cc1 [compound 189] | – | – | – | IC50 [1, 12]: 62 µM
4 | N.O=[N+]([O-])c1ccc(OP(=O)(O)C(NS(=O)(=O)c2cccs2)c2ccccc2)cc1 (stereo not drawn) [Compound 53, [Phenyl-(thiophene-2-sulfonylamino)-methyl]-phosphonic acid mono-(4-nitrophenyl) ester ammonium salt] | 363 | 2/2 | 1 | Synergy Class C E. Cl ([2]; inhibitor 1 μg/mL): 2/2; Synergy Class A St. A. [3]: 1
5 | N.O=[N+]([O-])c1ccc(OP(=O)(O)C(Cc2ccccc2)NS(=O)(=O)c2cccs2)cc1 (stereo not drawn) [Compound 44, [2-Phenyl-1-(thiophene-2-sulfonylamino)-ethyl]-phosphonic acid mono-(4-nitrophenyl) ester ammonium salt] | 192 | 2/2 | 1 | Synergy Class C E. Cl ([2]; inhibitor 1 μg/mL): 2/2; Synergy Class A St. A. [3]: 1
6 | O=[N+]([O-])c1ccc(OP(=O)(O)CNS(=O)(=O)c2cc3ccccc3s2)cc1 [compound 77] | 0.4 | – | – | –
7 | CN(CP(=O)(O)Oc1ccc([N+](=O)[O-])cc1)S(=O)(=O)c1cc2ccccc2s1.N [Compound 142, [(2-Benzothiophenesulfonyl-N-methylamino)-methyl]-phosphonic acid mono-(4-nitrophenyl) ester ammonium salt] | 1300 | 2 | – | logP [5]: -0.091
8 | O=[N+]([O-])c1ccc(OP(=O)(O)CNS(=O)(=O)c2cc3c(Cl)ccc(Cl)c3s2)cc1 [Compound 128, (5,8-dichlorobenzothiophene-2-sulfonyl)aminomethylphosphonic acid mono-(4-nitrophenyl) ester ammonium salt] | 0.1 | 16 | – | Synergy Intermed. Stenotro. ([6]; inhibitor 1 μg/mL): 1; Synergy Intermed. Stenotro. ([6]; inhibitor 10 μg/mL): 2; Synergy Resistant Ent. Cloacae ([7]; inhibitor 1 μg/mL): 1; Synergy Resistant Ent. Cloacae ([7]; inhibitor 10 μg/mL): 5; Synergy Resistant Stenotro. ([8]; inhibitor 1 μg/mL): 1; Synergy Resistant Stenotro. ([8]; inhibitor 10 μg/mL): 1; Synergy Intermed. Pseudo. ([9]; inhibitor 1 μg/mL): 1; Synergy Intermed. Pseudo. ([9]; inhibitor 10 μg/mL): 2; Synergy Resistant Pseudo. ([10]; inhibitor 1 μg/mL): 1; Synergy Resistant Pseudo. ([10]; inhibitor 10 μg/mL): 1; logP [5]: 0.45
9 | CN(CP(=O)(O)Oc1ccc([N+](=O)[O-])cc1)S(=O)(=O)c1cccs1.N [Compound 47, [(2-Thiophenesulfonyl-N-methylamino)methyl]-phosphonic acid mono-(4-nitrophenyl) ester ammonium salt] | 276 | 2 | 1 | –
10 | [(2-Benzothiophenesulfonyl-N-ethylamino)-methyl]-phosphonic acid mono-(4-nitrophenyl) ester ammonium salt [Compound 144] | – | – | – | Log P [11]: −0.036; IC50 [1, 12]: 463 µM
11 | N.O=P(O)(Oc1cccnc1Cl)C(Cc1ccccc1)NS(=O)(=O)c1cccs1 (stereo not drawn) [Compound 46, [2-Phenyl-1-(thiophene-2-sulfonylamino)-ethyl]-phosphonic acid mono-(2-chloropyridin-3-yl) ester ammonium salt] | 188 | 1/1 | 1 | Synergy Class C E. Cl ([2]; inhibitor 1 μg/mL): 1/1; Synergy Class A St. A. [3]: 1
12 | CC(C)C(NS(=O)(=O)c1cccs1)P(=O)(O)Oc1cccnc1Cl.N (stereo not drawn) [Compound 54, [2-Methyl-1-(thiophene-2-sulfonylamino)-propyl]-phosphonic acid mono-(2-chloropyridin-3-yl) ester ammonium salt] | 1800 | 2 | 1 | Synergy Class C E. Cl ([2]; inhibitor 1 μg/mL): 1; Synergy Class A St. A. [3]: 1
13 | [(2-Benzothiophenesulfonyl-N-phenylethylamino)-methyl]-phosphonic acid mono-(4-nitrophenyl) ester ammonium salt [Compound 143] | – | – | – | Log P [11]: 1.17; IC50 [1, 12]: 133 µM
14 | O=[N+]([O-])c1ccc(OP(=O)(O)CNS(=O)(=O)c2ccccc2Br)cc1 [compound 23] | 14 | – | – | –
15 | O=[N+]([O-])c1ccc(OP(=O)(O)CNS(=O)(=O)c2ccccc2)cc1 [compound 7] | 4 | – | – | –
16 | N.O=P(O)(Oc1cccnc1Cl)C(NS(=O)(=O)c1cccs1)c1ccccc1 (stereo not drawn) [Compound 60, [Phenyl-(thiophene-2-sulfonylamino)-methyl]-phosphonic acid mono-(2-chloropyridin-3-yl) ester ammonium salt] | 603 | 2 | 1 | Synergy Class C E. Cl ([2]; inhibitor 1 μg/mL): 1; Synergy Class A St. A. [3]: 1
17 | O=P(O)(CNS(=O)(=O)c1cccs1)Oc1cccc(Cl)c1 [compound 48] | 189 | – | – | –
18 | O=[N+]([O-])c1ccc(OP(=O)(O)CNS(=O)(=O)c2ccccn2)cc1 [compound 31] | 136 | – | – | –
19 | CN(C)c1cccc(OP(=O)(O)CNS(=O)(=O)c2cccs2)c1 [compound 78] | 3000 | – | – | –
20 | CC(C)C(NS(=O)(=O)c1cccs1)P(=O)(O)Oc1ccc([N+](=O)[O-])cc1 (stereo not drawn) [Compound 52, [2-Methyl-1-thiophene-2-sulfonylamino)-propyl]-phosphonic acid mono-(4-nitrophenyl) ester ammonium salt] | 1400 | 4 | 1 | Synergy Class C E. Cl ([2]; inhibitor 1 μg/mL): 2; Synergy Class A St. A. [3]: 1
21 | O=[N+]([O-])c1ccc(OP(=O)(O)CNS(=O)(=O)c2ccc([N+](=O)[O-])cc2)cc1 [compound 12] | 10 | – | – | –
22 | O=[N+]([O-])c1ccc(OP(=O)(O)CN(Cc2ccccc2)S(=O)(=O)c2cc3ccccc3s2)cc1 [Compound 145, (2-Benzothiophenesulfonyl-N-benzylamino)-methyl]-phosphonic acid mono-(4-nitrophenyl) ester ammonium salt] | 94 | 4 | – | logP [5]: 0.86
